# Assay results as given in patent publication US3968214A, “5-Methylthio-pyrimidine vasodilators” (Produits Chimiques Ugine Kuhlmann, priority 1973, dated 1976).
# Like-named read-outs stand apart in the source and are kept apart here.
# Assays:
# [1] = Acute toxicity in mice, intravenous and oral (LD50); assay type: in vivo; details: mouse, in vivo
# Excerpt: The acute toxicities of the compounds according to the invention have been determined CD 1 mice (Charles RIVER) by intravenous and oral methods. The LD50 calculated by the quantal cumulative method of J. J. Reed and H. Muench (Amer. J. Hyg. 1938, 27, 493) are collected in the following Table: […]
# [2] = system: isolated duodenum of rabbit, contractions caused by acetylcholine; assay: Spasmolytic activity, neurotrope versus acetylcholine, isolated duodenum (Magnus)
# Excerpt: (§1) The spasmolytic activities are known by means of the technique of R. Magnus (Arch. Ges. Physiol., 1904, 102, 123) on the isolated duodenum of rabbits. The spasmolytic neurotropes inhibit the contractions of the organ caused by acetylcholine, while the musculotropes prevent the spasms induced by barium chloride. The EC 50 expressed in mg/litre are collected in the following Table where EC denotes "Effective concentration".
# [3] = system: isolated duodenum of rabbit, spasms induced by barium chloride; assay: Spasmolytic activity, musculotrope versus BaCl2, isolated duodenum (Magnus)
# Excerpt: as §1
# [4] = system: isolated rabbit heart; assay: Coronaro-dilatatory activity, isolated heart (Langendorff modified by Anderson); details: for coronaro-dilatatory activity (in words): isolated rabbit heart
# Excerpt: The technique of Langendorff, modified by F. E. Anderson, (J. Pharmacol. exp. Therap., 1948, 91, 135) using isolated rabbit heart permits the coronaro-dilatatory activity of the products to be studied. In this text, the cardiac perfusion liquid contains 0.5 UI/1 of posthypophysis. The results are expressed in the percentage variation of the coronary flow after affusion of the product to be tested, compared with the initial flow.
# [5] = system: abdominal spasms caused in mice by 2-phenyl-1,4-benzoquinone; assay: Analgesic activity: abdominal spasms caused by intraperitoneal 2-phenyl-1,4-benzoquinone (P.B.Q.); assay type: in vivo; details: for ED50: Mus musculus, mice, oral, read-out: Analgesic activity P.B.Q. AD 50; for analgesic activity (in words): given orally to mice
# Excerpt: The analgesic activities have been investigated with respect to abdominal spasms caused in mice by the intraperitoneal injection of 2-phenyl-1,4-benzoquinone according to E. Siegmund, E. Cadmus and G. Lu, Proc. Soc. exp. Biol. Med., 1957, 95, 729-731. The central antiserotonin properties have been determined by the "Head-twitch" technique in mice according to S. J. Corne, R. W. Pickering and B. T. Warner, Brit. J. Pharmacol., 1963, 20, 106-120. In this test, the antiserotonin products inhibit the sudden shaking of the head induced in mice by 5-hydroxy-tryptophan, the biological precursor of serotonin.
# [6] = intravenous, read-out: Acute toxicity to mice LD 50, intravenous
# [7] = oral, read-out: Acute toxicity to mice LD 50, orally
Structure (SMILES),"LD50 [1, 6] [mg/kg]","LD50 [1, 7] [mg/kg]","Spasmolytic activity EC 50, neurotrope versus acetylcholine [2] [µg/mL]","Spasmolytic activity EC 50, musculotrope versus BaCl2 [3] [µg/mL]",other results
"CCN(CC)CCNc1nc(N(C)C)nc(Cl)c1SC [Example 1, 2-dimethylamino-4-(2'-diethylamine)ethylamino-5-methylthio-6-chloropyrimidine]",53,200,5.50,1.40,–
"CCN(CC)CCNc1nc(N(C)Cc2ccccc2)nc(Cl)c1SC [Example 4, 2-N-methyl-N-benzylamino-4-(2'-diethylamino)-ethylamino-5-methylthio-6-chloro-pyrimidine]",45,525,0.30,0.06,neurotropic spasmolytic activity (in words) [2]: necessary to call attention; musculotropic EC 50 [3]: less than 0.1 mg/liter; musculotropic spasmolytic activity (in words) [3]: quite remarkable activities; Increase of the coronary flow ([4]; dose 0.003 mg): 8%; Increase of the coronary flow ([4]; dose 0.01 mg): 28%; Increase of the coronary flow ([4]; dose 0.03 mg): 41%; Increase of the coronary flow ([4]; dose 0.10 mg): 135%; coronaro-dilatatory activity (in words) [4]: interesting coronaro-dilatatory activities
"CSc1c(Cl)nc(N(C)c2ccccc2)nc1NCCN(C)C [Example 7, 2-N-methyl-N-phenyl-amino-4-(2'-dimethyl-amino)-ethylamino-5-methylthio-6-chloro-pyrimidine]",80,200,1.20,0.16,ED50 [5]: 60 mg/kg; analgesic activity (in words) [5]: marked analgesic activity; Increase of the coronary flow ([4]; dose 0.003 mg): 38%; Increase of the coronary flow ([4]; dose 0.01 mg): 40%; Increase of the coronary flow ([4]; dose 0.03 mg): 37%; Increase of the coronary flow ([4]; dose 0.10 mg): 77%; coronaro-dilatatory activity (in words) [4]: interesting coronaro-dilatatory activities
"CSc1c(Cl)nc(N(C)C)nc1NCCN(C)C [Example 8, 2-dimethylamino-4-(2'-dimethylamino)-ethylamino-5-methylthio-6-chloro-pyrimidine]",57,525,4.90,2.80,–
"CSc1c(Cl)nc(N2CCOCC2)nc1NCCN(C)C [Example 9, 2-morpholino-4-(2'-dimethylamino)-ethyl-amino-5-methylthio-6-chloro-pyrimidine]",–,400,3.00,1.90,–
"CCOC(=O)CN(C)c1nc(Cl)c(SC)c(NCCN(C)C)n1 [Example 10, 2-N-methyl-N-(ethoxycarbonylmethyl)-amino-4-(2'-dimethylamino)-ethylamino-5-methylthio-6-chloro-pyrimidine]",79,900,0.50,0.50,neurotropic spasmolytic activity (in words) [2]: necessary to call attention
"CSc1c(Cl)nc(N(C)Cc2ccccc2)nc1NCCN(C(C)C)C(C)C [Example 11, 2-N-methyl-N-benzylamino-4-(2'-di-isopropyl-amino)-ethylamino-5-methylthio-6-chloro-pyrimidine]",60,675,3.50,0.02,musculotropic EC 50 [3]: less than 0.1 mg/liter; musculotropic spasmolytic activity (in words) [3]: quite remarkable activities; Increase of the coronary flow ([4]; dose 0.001 mg): 168%; Increase of the coronary flow ([4]; dose 0.003 mg): 172%; coronaro-dilatatory activity (in words) [4]: interesting coronaro-dilatatory activities
"CSc1c(Cl)nc(N(C)c2ccc(C)cc2)nc1NCCN(C(C)C)C(C)C [Example 14, 2-N-methyl-N(4-methyl-phenyl)amino-4-(2'-diisopropylamino)-ethylamino-5-methylthio-6-chloro-pyrimidine]",92,900,0.08,0.04,neurotropic spasmolytic activity (in words) [2]: necessary to call attention; musculotropic EC 50 [3]: less than 0.1 mg/liter; musculotropic spasmolytic activity (in words) [3]: quite remarkable activities; Increase of the coronary flow ([4]; dose 0.003 mg): 104%; Increase of the coronary flow ([4]; dose 0.01 mg): 140%; Increase of the coronary flow ([4]; dose 0.03 mg): 168%; coronaro-dilatatory activity (in words) [4]: interesting coronaro-dilatatory activities
"CCOC(=O)CN(C)c1nc(Cl)c(SC)c(NCCN(C(C)C)C(C)C)n1 [Example 15, 2-N-methyl-N-(ethoxycarbonylmethyl)-amino-4-(2'-diisopropylamino)-ethylamino-5-methyl-thio-6-chloro-pyrimidine]",63,> 900,–,0.05,musculotropic EC 50 [3]: less than 0.1 mg/liter; musculotropic spasmolytic activity (in words) [3]: quite remarkable activities; Increase of the coronary flow ([4]; dose 0.003 mg): 16%; Increase of the coronary flow ([4]; dose 0.01 mg): 24%; Increase of the coronary flow ([4]; dose 0.03 mg): 44%; Increase of the coronary flow ([4]; dose 0.10 mg): 28%; coronaro-dilatatory activity (in words) [4]: interesting coronaro-dilatatory activities
"CCN(CC)CCNc1nc(N(C)c2ccc(C)cc2)nc(Cl)c1SC [Example 19, 2-N-methyl-N(4-methyl-phenyl)amino-4-(2'-diethylamino)-ethylamino-5-methyl-thio-6-chloro-pyrimidine]",–,~675,–,–,–
"CCN(CC)CCNc1nc(N(C)c2ccc(OC)c(OC)c2)nc(Cl)c1SC [Example 20, 2-N-methyl-N(3,4-dimethoxy-phenyl)amino-4-(2'-diethylamino)-ethylamino-5-methylthio-6-chloro-pyrimidine]",–,400,–,–,–
"COc1ccc(N(C)c2nc(Cl)c(SC)c(NCCN(C(C)C)C(C)C)n2)cc1OC [Example 21, 2-N-methyl-N(3,4-dimethoxy-phenyl)amino-4-(2'-diisopropylamino)-ethylamino-5-methylthio-6-chloro-pyrimidine]",–,~600,–,–,–
"CSc1c(Cl)nc(N(C)c2ccc(Cl)cc2)nc1NCCN1CC(C)OC(C)C1 (centres unmarked) [Example 22, 2-N-methyl-N-(4-chloro-phenyl)amino-4-(2'-2,6-dimethyl-morpholino)-ethylamino-5-methylthio-6-chloro-pyrimidine]",–,> 900,–,–,–
"CSc1c(NCCN(C)C)nc(N(C)C)nc1OCc1cccnc1 [Example 23, 2-N-dimethyl-amino-4-(2'-dimethylamino)-ethylamino-5-methyl-thio-6-(3-pyridyl)-methoxy-pyrimidine]",22,175,8.60,1.00,–
"CCN(CC)CCNc1nc(N(C)c2ccc(Cl)cc2)nc(OC)c1SC [Example 25, 2-N-methyl-N(4-chloro-phenyl)amino-4-(2'-diethylamino)-ethylamino-5-methylthio-6-methoxy-pyrimidine]",–,~600,–,–,–
"COc1nc(N(C)c2ccccc2)nc(NCCN(C)C)c1SC [Example 26, 2-N-methyl-N-phenyl-amino-4-(2'-dimethylamino)-ethylamino-5-methylthio-6-methoxy-pyrimidine]",70,225,–,–,ED50 [5]: 65 mg/kg
"COc1nc(N(C)Cc2ccccc2)nc(NCCN(C(C)C)C(C)C)c1SC [Example 27, 2-N-methyl-N-benzyl-amino-4-(2'-diiso-propyl-amino)-ethylamino-5-methyl-thio-6-methoxy-pyrimidine]",18.5,600,–,0.08,ED50 [5]: 95 mg/kg; analgesic activity (in words) [5]: marked analgesic activity; musculotropic EC 50 [3]: less than 0.1 mg/liter; musculotropic spasmolytic activity (in words) [3]: quite remarkable activities
"COc1ccc(N(C)c2nc(NCCN(C(C)C)C(C)C)c(SC)c(OC)n2)cc1OC [Example 28, 2-N-methyl-N-(3,4-dimethoxy-phenyl)-amino-4-(2'-diisopropyl-amino)-ethyl-amino-5-methylthio-6-methoxy-pyrimidine]",–,~200,–,–,–
"COc1nc(N2CCCCC2)nc(NCCN(C(C)C)C(C)C)c1SC [Example 29, 2-piperidino-4-(2'-diisopropyl-amino)-ethylamino-5-methylthio-6-methoxy-pyrimidine]",–,~200,–,–,–
"CCCCOc1nc(N(C)Cc2ccccc2)nc(NCCN(C(C)C)C(C)C)c1SC [Example 31, 2-N-methyl-2-N-benzylamino-4-(2'-di-isopropyl-amino)-ethylamino-5-methylthio-6-butoxy-pyrimidine]",–,~675,–,–,–
"CCCCOc1nc(N(C)c2ccccc2)nc(NCCN(C(C)C)C(C)C)c1SC [Example 32, 2-N-methyl-N-phenylamino-4-(2'-diiso-propyl-amino)-ethylamino-5-methyl-thio-6-butoxy-pyrimidine]",–,~525,–,–,–
